# Measured values reported in ChEMBL document CHEMBL1125691, “Escherichia coli mediated biosynthesis and in vitro anti-HIV activity of lipophilic 6-halo-2',3'-dideoxypurine nucleosides” (J Med Chem, 1991).
# Key:
# [1] = test system: ATH-8 cell line; test: Concentration required to inhibit the cytopathic effect of HIV-1 on ATH8 cells; format: functional, Human immunodeficiency virus 1; conditions: Homo sapiens, read-out: ED50 (the source's name)
# [2] = test system: ATH-8 cell line; test: In Vitro evaluation for the anti-viral activity Drug concentrations required to inhibit the cytopathic effect of HIV-2 on ATH8 cells; format: functional; conditions: Homo sapiens, read-out: ED50 (the source's name)
# [3] = test system: ATH-8 cell line; test: Concentration required to suppress the growth of target ATH8 cells; format: functional; conditions: Homo sapiens, read-out: CD50 (the source's name)
# [4] = Compound was evaluated for the partition coefficient measured for 1-octanol and 0.01 M potassium phosphate buffer (pH 7.0); format: physicochemical; conditions: octanol/water
# [5] = test system: ATH-8 cell line; test: Ratio of CD50/ED50; format: functional
# [6] = test system: ATH-8 cell line; test: (§1) ratio of CD50/ED50; format: functional
# [7] = as §1; format: functional
# [8] = test system: ATH-8 cell line; test: In vitro evaluation for the anti-viral activity by taking the drug concentrations required to suppress the growth of target ATH8 cells; format: functional; conditions: Homo sapiens, read-out: CD50 (the source's name)
# [9] = test system: ATH-8 cell line; test: In vitro evaluation for the anti-viral activity Drug concentrations required to inhibit the cytopathic effect of HIV-1on ATH8 cells; format: functional; conditions: Homo sapiens, read-out: ED50 (the source's name)
SMILES,EC50 [1] [µM],CC50 [3] [µM],other results
Nc1ncc2ncn([C@H]3CC[C@@H](CO)O3)c2n1,> 200,> 200,
O=c1[nH]c(=O)c2ncn([C@H]3CC[C@@H](CO)O3)c2[nH]1,> 200,> 200,
Cc1cn([C@H]2C[C@H](N=[N+]=[N-])[C@@H](CO)O2)c(=O)[nH]c1=O [ZIDOVUDINE],5,> 20,Partition coefficient [4]: 1.12; Ratio [5]: 4
Nc1nc2c(ncn2[C@H]2CC[C@@H](CO)O2)c(=O)[nH]1,3.5,> 900,Partition coefficient [4]: 0.08; Ratio [6]: >257
Nc1nc(F)c2ncn([C@H]3CC[C@@H](CO)O3)c2n1,2.4,> 300,EC50 [2]: 14.5 µM
OCC1CCC(n2cnc3c(I)ncnc32)O1 (configuration not stated),46,86,
OC[C@@H]1CC[C@H](n2cnc3cncnc32)O1,> 200,> 200,
OC[C@@H]1CC[C@H](n2cnc3c(F)ncnc32)O1,2.8,190,EC50 [2]: 16 µM
OCC1CCC(n2cnc3c(S)ncnc32)O1 (configuration not stated),> 200,150,Ratio [6]: <0.8
Nc1nc(S)c2ncn(C3CCC(CO)O3)c2n1 (configuration not stated),,,Ratio [5]: <0.1; CC50 [8]: 9 µM; EC50 [9]: > 200 µM
OCC1CCC(n2cnc3c(Br)ncnc32)O1 (configuration not stated),7.7,96,
O=c1[nH]cnc2c1ncn2[C@H]1CC[C@@H](CO)O1 [DIDANOSINE],5.6,> 900,Partition coefficient [4]: 0.05; Ratio [6]: >161

# Now from value to compound, other results behind:
EC50 [1] [µM],SMILES,CC50 [3] [µM],other results
6.9,OC[C@@H]1CC[C@H](n2cnc3c(Cl)ncnc32)O1,164,EC50 [2]: 42 µM
5.5,Nc1nc(Cl)c2ncn([C@H]3CC[C@@H](CO)O3)c2n1,> 300,EC50 [2]: 12.5 µM
7.9,Nc1nc(I)c2ncn(C3CCC(CO)O3)c2n1 (configuration not stated),210,
> 200,OC[C@@H]1CC[C@H](n2cnc3c(Cl)nc(Cl)nc32)O1,36,Ratio [7]: < 0.2
6.9,Nc1nc(Br)c2ncn(C3CCC(CO)O3)c2n1 (configuration not stated),> 300,
